Earlier results, collected in patent publication US20230364009A1, “Implantable Medical Device for the Delivery of an Antipsychotic” (Celanese EVA Performance Polymers LLC, priority 2022, published 2023).

Key:
[1] = system: haloperidol-sensitive sigma site
[2] = molecular target: dopamine Type 2 (D2) receptors (Homo sapiens, UniProt P14416)
β1 adrenergic receptors = β1 adrenergic receptors (Homo sapiens, UniProt P08588)
[3] = molecular target: T1, serotonin 5HT1A receptors (Homo sapiens, UniProt P08908)
T1 sequence (P08908 1-422): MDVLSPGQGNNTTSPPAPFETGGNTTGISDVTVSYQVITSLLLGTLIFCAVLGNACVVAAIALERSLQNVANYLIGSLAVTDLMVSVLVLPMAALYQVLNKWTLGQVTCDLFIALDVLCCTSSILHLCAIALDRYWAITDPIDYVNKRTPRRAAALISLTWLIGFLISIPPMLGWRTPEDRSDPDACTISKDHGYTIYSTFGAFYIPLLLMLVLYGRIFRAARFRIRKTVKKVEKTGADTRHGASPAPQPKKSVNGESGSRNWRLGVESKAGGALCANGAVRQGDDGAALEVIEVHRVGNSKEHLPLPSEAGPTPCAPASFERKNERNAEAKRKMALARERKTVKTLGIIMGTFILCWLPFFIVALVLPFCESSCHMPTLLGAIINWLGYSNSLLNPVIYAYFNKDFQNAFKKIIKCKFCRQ

[4] = molecular target: serotonin 5HT1D receptors (Homo sapiens, UniProt P28221)
serotonin 5HT1D receptors, sequence (P28221 whole entry): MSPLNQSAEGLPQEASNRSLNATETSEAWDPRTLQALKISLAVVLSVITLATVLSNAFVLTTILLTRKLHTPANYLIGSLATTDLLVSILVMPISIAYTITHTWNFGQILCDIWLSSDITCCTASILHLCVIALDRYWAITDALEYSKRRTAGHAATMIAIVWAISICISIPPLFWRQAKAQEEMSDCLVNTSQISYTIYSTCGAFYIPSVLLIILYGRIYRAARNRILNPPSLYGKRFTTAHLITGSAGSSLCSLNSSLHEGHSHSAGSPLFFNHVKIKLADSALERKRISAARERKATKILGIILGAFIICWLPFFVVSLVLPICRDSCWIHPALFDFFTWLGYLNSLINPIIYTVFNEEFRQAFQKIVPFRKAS

β2 adrenergic receptors = β2 adrenergic receptors (Homo sapiens, UniProt P07550)
β2 adrenergic receptors, sequence (P07550 whole entry): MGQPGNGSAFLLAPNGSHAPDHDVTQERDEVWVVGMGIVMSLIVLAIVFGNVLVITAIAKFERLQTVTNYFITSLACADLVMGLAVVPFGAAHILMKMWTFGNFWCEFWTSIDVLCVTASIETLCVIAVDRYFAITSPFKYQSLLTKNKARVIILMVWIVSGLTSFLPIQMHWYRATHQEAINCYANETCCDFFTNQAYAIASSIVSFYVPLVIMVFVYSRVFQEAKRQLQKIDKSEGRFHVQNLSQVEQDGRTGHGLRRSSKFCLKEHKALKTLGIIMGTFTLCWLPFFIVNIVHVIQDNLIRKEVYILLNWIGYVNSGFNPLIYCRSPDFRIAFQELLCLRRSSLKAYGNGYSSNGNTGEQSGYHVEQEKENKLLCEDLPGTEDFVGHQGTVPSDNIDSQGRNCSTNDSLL

[5] = molecular target: T2, serotonin 5HT1c receptors (Homo sapiens, UniProt P28335)
T2 sequence (P28335 33-458): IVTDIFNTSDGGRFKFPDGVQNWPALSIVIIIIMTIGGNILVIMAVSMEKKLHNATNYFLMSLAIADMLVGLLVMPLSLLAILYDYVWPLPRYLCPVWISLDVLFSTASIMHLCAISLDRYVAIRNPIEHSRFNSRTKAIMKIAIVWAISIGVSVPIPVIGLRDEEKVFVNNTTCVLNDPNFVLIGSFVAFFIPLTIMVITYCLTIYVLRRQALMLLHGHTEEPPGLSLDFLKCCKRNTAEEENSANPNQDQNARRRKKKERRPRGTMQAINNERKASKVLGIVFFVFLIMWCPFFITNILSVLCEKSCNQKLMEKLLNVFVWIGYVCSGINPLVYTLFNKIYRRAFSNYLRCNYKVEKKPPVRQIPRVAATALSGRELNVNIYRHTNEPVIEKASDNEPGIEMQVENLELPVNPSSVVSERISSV

dopamine D1 = dopamine D1 (Homo sapiens, UniProt P21728)
dopamine D1, sequence (P21728 whole entry): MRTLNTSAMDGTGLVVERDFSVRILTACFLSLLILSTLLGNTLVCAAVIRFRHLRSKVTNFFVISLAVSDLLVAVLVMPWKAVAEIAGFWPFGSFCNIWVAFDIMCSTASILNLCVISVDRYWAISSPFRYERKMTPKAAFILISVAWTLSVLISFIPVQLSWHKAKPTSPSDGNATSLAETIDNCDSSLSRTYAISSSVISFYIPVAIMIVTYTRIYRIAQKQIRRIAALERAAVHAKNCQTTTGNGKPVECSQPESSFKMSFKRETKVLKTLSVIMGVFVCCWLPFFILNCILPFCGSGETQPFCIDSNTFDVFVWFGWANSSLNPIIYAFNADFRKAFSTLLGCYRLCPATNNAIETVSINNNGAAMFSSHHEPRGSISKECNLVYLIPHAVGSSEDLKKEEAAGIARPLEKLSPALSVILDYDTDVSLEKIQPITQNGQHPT

β1 adrenergic receptors, sequence (P08588 whole entry): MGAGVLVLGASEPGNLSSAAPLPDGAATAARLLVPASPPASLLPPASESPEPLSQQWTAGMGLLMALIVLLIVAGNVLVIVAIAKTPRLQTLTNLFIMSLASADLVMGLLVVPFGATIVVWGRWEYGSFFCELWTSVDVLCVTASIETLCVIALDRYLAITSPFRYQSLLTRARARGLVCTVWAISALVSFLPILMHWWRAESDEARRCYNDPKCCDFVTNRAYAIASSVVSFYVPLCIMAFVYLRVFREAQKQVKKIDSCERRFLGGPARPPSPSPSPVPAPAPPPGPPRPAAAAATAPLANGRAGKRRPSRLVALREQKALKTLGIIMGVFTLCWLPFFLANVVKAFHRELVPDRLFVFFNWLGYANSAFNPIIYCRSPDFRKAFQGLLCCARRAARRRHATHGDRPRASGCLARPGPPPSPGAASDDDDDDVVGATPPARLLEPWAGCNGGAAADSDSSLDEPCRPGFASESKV
dopamine Type 2 (D2) receptors, sequence (P14416 whole entry): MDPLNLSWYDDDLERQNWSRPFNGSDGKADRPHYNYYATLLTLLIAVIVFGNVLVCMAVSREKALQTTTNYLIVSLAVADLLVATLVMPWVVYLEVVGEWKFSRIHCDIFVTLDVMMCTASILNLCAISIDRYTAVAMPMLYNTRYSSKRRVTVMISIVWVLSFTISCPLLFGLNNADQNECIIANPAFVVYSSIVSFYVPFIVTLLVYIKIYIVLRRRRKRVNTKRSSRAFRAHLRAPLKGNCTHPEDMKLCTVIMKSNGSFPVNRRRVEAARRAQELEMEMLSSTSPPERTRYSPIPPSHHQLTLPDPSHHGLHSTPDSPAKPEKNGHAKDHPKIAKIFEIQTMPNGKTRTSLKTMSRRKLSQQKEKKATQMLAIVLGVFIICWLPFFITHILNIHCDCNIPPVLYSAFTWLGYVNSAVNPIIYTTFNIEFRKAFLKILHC

Structure (SMILES): Cc1nc2n(c(=O)c1CCN1CCC(c3noc4cc(F)ccc34)CC1)CCCC2 [Risperidone, risperidone]
- affinity [1]: weak affinity
- affinity [2]: high affinity
- affinity (β1 adrenergic receptors): no affinity
- affinity (α1 adrenergic receptors): high affinity
- affinity [3]: low to moderate affinity
- affinity [4]: low to moderate affinity
- affinity (α2 adrenergic receptors): high affinity
- affinity (β2 adrenergic receptors): no affinity
- affinity [5]: low to moderate affinity
- affinity (dopamine D1): weak affinity
